Measured values taken from patent US5807981A (FibroGen Inc., priority 1995, dated 1998).
Where two headings read alike, the source gives them in different places. Starred links: 1 amine or outer side, 2 acyl side, 3 side chain; linkers in the order of their positions; H or OH if unused. Non-standard residues stand in square brackets, D forms with d. Residues, ends and D or L forms follow the SMILES beside them. *: point of attachment. Sta = CC(C)C[C@H](N)[C@@H](O)CC(=O)O; Isovaleryl = CC(C)CC(=O)*; CO = O=C([*:1])[*:2]

Legend:
C-proteinase [1] = conditions: cited from earlier work; for concentrations at which inhibitory / inhibition of C-proteinase activity (in words) / inhibitory at low concentrations: background, prior art
C-proteinase [2] = molecular target: T1, C-proteinase (Homo sapiens, UniProt P13497); experiment: Cleavage of synthetic procollagen cleavage-site peptides by active C-proteinase; assay type: biochemical; conditions: for Cleavability: Table 1, cleavability of peptides resembling the C-proteinase cleavage site of procollagen; for cleavability by C-proteinase: truncated and extended peptides compared with original peptide SEQ ID NO:6
T1 sequence (P13497 121-986): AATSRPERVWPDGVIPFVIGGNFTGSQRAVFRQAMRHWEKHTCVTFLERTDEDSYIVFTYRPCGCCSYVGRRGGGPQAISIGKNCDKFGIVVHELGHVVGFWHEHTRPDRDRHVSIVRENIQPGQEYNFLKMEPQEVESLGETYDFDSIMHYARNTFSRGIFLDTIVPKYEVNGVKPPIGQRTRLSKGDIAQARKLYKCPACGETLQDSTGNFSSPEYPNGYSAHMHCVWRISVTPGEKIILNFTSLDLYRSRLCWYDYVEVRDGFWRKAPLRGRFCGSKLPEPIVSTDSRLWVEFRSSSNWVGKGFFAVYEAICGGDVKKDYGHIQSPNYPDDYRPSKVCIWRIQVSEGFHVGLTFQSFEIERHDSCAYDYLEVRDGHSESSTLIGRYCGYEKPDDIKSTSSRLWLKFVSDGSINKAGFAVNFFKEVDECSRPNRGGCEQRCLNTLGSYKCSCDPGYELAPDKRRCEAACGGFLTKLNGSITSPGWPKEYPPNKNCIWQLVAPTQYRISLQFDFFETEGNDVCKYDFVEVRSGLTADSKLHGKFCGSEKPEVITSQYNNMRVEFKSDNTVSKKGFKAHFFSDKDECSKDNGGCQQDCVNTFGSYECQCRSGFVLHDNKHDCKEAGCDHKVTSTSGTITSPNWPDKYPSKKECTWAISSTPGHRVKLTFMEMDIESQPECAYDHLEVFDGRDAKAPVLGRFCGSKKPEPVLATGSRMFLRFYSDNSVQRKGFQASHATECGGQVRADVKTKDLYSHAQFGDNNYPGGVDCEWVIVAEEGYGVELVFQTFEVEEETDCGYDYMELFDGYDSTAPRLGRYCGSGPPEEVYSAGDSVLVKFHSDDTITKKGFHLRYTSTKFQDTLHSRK
Source text: A variety of short peptides comprising five (5) to twelve (12) amino acids was synthesized and tested for cleavage by active C-proteinase.
First, four peptides, each comprising eight (8) amino acids corresponding to the cleavage region of several procollagens were synthesized. See, TABLE 1, SEQ ID NO:3, SEQ ID NO:4, SEQ ID NO:5, and SEQ ID NO:6. All four peptides were examined for cleavability by C-proteinase. […] Indeed, one would expect that recognition of the cleavage site depends on structural requirements which cannot be resembled by only eight (8) amino acids.
Second, a series of peptides was prepared based on the sequence of original peptide SEQ ID NO:6. Specifically, peptides were designed resembling the core of the peptide comprising SEQ ID NO:6, but with truncations of one, two and three amino acids from either side of the cleavage site. A further peptide was synthesized resembling two additional amino acids at both the N-terminus and C-terminus of the original peptide comprising SEQ ID NO:6.
Removing two or more amino acids from either end of the original SEQ ID NO:6 sequence, however, yielded a non-cleavable peptide (SEQ ID NOS:9, 10, 12, 13).

## phosphate
C-proteinase [1]
  concentrations at which inhibitory: 1 to 10 mM

## [Cl-].[Na+] [NaCl]
C-proteinase [1]; 0.2M NaCl
  activity relative to that observed with the standard assay concentration of 0.15M: 66%
C-proteinase [1]; 0.3M NaCl
  activity relative to that observed with the standard assay concentration of 0.15M: 38%
C-proteinase [1]; 0.5M NaCl
  activity relative to that observed with the standard assay concentration of 0.15M: 25%

## Tris-HCl [Tris-HCl buffer]
C-proteinase [1]; concentration of 0.2-0.5M
  inhibition of C-proteinase activity by buffer: markedly inhibited activity

## CC(C)[C@H](NC(=O)[C@H](CCCNC(=N)N)NC(=O)N[C@@H](Cc1ccccc1)C(=O)O)C(=O)N[C@H](C=O)CCCNC(=N)N [antipain] ({Phe-CO}-Arg-Val-Arg-aldehyde)
C-proteinase [1]
  inhibition of C-proteinase activity (in words): weak or no effect

## CC(C)C[C@H](NC(=O)[C@@H](O)[C@H](N)Cc1ccccc1)C(=O)O [bestatin]
C-proteinase [1]
  inhibition of C-proteinase activity (in words): weak or no effect

## CC(C)C[C@@H](N)[C@H](O)C(=O)N[C@H](C(=O)N[C@H](C(=O)N[C@@H](CC(=O)O)C(=O)O)C(C)C)C(C)C [amastatin]
C-proteinase [1]
  inhibition of C-proteinase activity (in words): weak or no effect

## N=C(N)NCCC[C@H](N)C(=O)O [arginine]
C-proteinase [1]
  inhibition of C-proteinase activity (in words): inhibited

## CC(C)C[C@H](NC(=O)[C@@H](NC(=O)N[C@@H](Cc1ccccc1)C(=O)O)[C@@H]1CCN=C(N)N1)C(=O)N[C@H](C=O)Cc1ccccc1 [chymostatin]
C-proteinase [1]
  inhibition of C-proteinase activity (in words): relatively strong inhibitors

## [Zn+2] [Zn^2+]
C-proteinase [1]
  inhibitory at low concentrations: inhibitory at low concentrations

## [Cd+2] [Cd^2+]
C-proteinase [1]
  inhibitory at low concentrations: inhibitory at low concentrations

## CSCC[C@H](NC(=O)[C@@H]1CCCN1C(=O)[C@H](CCC(=O)O)NC(=O)[C@H](CC(=O)O)NC(=O)CNC(C)=O)C(N)=O [SEQ ID NO:13, Ac-G-DEPM-NH2] (Ac-GDEPM-NH2)
C-proteinase [2]
  Cleavability: none
  cleavability by C-proteinase: non-cleavable

## CSCC[C@H](NC(=O)[C@@H]1CCCN1C(=O)[C@H](CCC(=O)O)NC(=O)[C@H](CC(=O)O)NC(=O)CNC(=O)[C@H](Cc1ccc(O)cc1)NC(=O)[C@H](Cc1ccc(O)cc1)NC(=O)[C@@H]1CCCN1C(C)=O)C(N)=O [SEQ ID NO:6, Ac-PYYG-DEPM-NH2] (Ac-PYYGDEPM-NH2)
C-proteinase [2]
  Cleavability: excellent
  cleavability by C-proteinase: cleaved much more efficiently than the three others

## CC(C)CC(=O)N[C@H](C(=O)N[C@H](C(=O)N[C@@H](CC(C)C)[C@@H](O)CC(=O)N[C@@H](C)C(=O)N[C@@H](CC(C)C)[C@@H](O)CC(=O)O)C(C)C)C(C)C [pepstatin A] (Isovaleryl-VV[Sta]A[Sta]-OH)
C-proteinase [1]
  inhibition of C-proteinase activity (in words): relatively strong inhibitors

## CC(=O)N[C@@H](Cc1ccccc1)C(=O)N[C@@H](Cc1ccc(O)cc1)C(=O)N[C@@H](CCCNC(=N)N)C(=O)N[C@@H](C)C(=O)N[C@@H](CC(=O)O)C(=O)N[C@@H](CCC(N)=O)C(=O)N1CCC[C@H]1C(=O)N[C@@H](CCCNC(=N)N)C(N)=O [SEQ ID NO:4, Ac-FYRA-DQPR-NH2] (Ac-FYRADQPR-NH2)
C-proteinase [2]
  Cleavability: slight
  cleavability by C-proteinase: cleaved by C-proteinase

## CC(=O)N[C@@H](CC(C)C)C(=O)N[C@@H](CC(C)C)C(=O)N[C@H](C=O)CCCNC(=N)N [leupeptin]
C-proteinase [1]
  inhibition of C-proteinase activity (in words): weak or no effect

## concanavalin A
C-proteinase [1]
  inhibitory at low concentrations: inhibitory at low concentrations

## CC(C)C[C@H](NP(=O)(O)O[C@@H]1O[C@@H](C)[C@H](O)[C@@H](O)[C@H]1O)C(=O)N[C@@H](Cc1c[nH]c2ccccc12)C(=O)O [phosphoramidon]
C-proteinase [1]
  inhibition of C-proteinase activity (in words): weak or no effect

## CSCC[C@H](NC(=O)[C@@H]1CCCN1C(=O)[C@H](CCC(=O)O)NC(=O)[C@H](CC(=O)O)NC(=O)CNC(=O)[C@H](Cc1ccc(O)cc1)NC(=O)[C@H](Cc1ccc(O)cc1)NC(C)=O)C(N)=O [SEQ ID NO:11, Ac-YYG-DEPM-NH2] (Ac-YYGDEPM-NH2)
C-proteinase [2]
  Cleavability: excellent
  cleavability by C-proteinase: did not drastically alter its cleavability

## CSCC[C@H](NC(=O)[C@@H]1CCCN1C(=O)[C@H](CCC(=O)O)NC(=O)[C@H](CC(=O)O)NC(=O)CNC(=O)[C@H](Cc1ccc(O)cc1)NC(C)=O)C(N)=O [SEQ ID NO:12, Ac-YG-DEPM-NH2] (Ac-YGDEPM-NH2)
C-proteinase [2]
  Cleavability: none
  cleavability by C-proteinase: non-cleavable

## O[C@H](CS)[C@H](O)CS (racemic) [Dithiothreitol]
C-proteinase [1]
  inhibitory at low concentrations: inhibitory at low concentrations

## CC(=O)N1CCC[C@H]1C(=O)N[C@@H](Cc1ccc(O)cc1)C(=O)N[C@@H](Cc1ccc(O)cc1)C(=O)NCC(=O)N[C@@H](CC(=O)O)C(=O)N[C@@H](CCC(=O)O)C(=O)N1CCC[C@H]1C(N)=O [SEQ ID NO:8, Ac-PYYG-DEP-NH2] (Ac-PYYGDEP-NH2)
C-proteinase [2]
  Cleavability: excellent
  cleavability by C-proteinase: did not drastically alter its cleavability

## N.N.O=S(=O)(O)O [ammonium sulfate]
C-proteinase [1]
  concentrations at which inhibitory: 1 to 10 mM

## CC(=O)N1CCC[C@H]1C(=O)N[C@@H](Cc1ccc(O)cc1)C(=O)N[C@@H](Cc1ccc(O)cc1)C(=O)NCC(=O)N[C@@H](CC(=O)O)C(N)=O [SEQ ID NO:10, Ac-PYYG-D-NH2] (Ac-PYYGD-NH2)
C-proteinase [2]
  Cleavability: none
  cleavability by C-proteinase: non-cleavable

## CC(C)C[C@H](NC(=O)N[C@H](C(=O)N[C@@H](CCC(N)=O)C(=O)N[C@@H](C)C=O)[C@@H]1CCNC(=N)N1)C(=O)O [elastinal]
C-proteinase [1]
  inhibition of C-proteinase activity (in words): weak or no effect

## CCCCCCCCCCCCOS(=O)(=O)[O-].[Na+] [SDS]
C-proteinase [1]
  inhibitory at low concentrations: inhibitory at low concentrations

## NCCCC[C@H](N)C(=O)O [lysine]
C-proteinase [1]
  inhibition of C-proteinase activity (in words): inhibited

## α2 -Macroglobulin
C-proteinase [1]
  inhibition of C-proteinase activity (in words): at least partially inhibit

## [Cu+2] [Cu^2+]
C-proteinase [1]
  inhibitory at low concentrations: inhibitory at low concentrations

B1: ovostatin (protein, UniProt P20740 37-1473, looked up)
Ovostatin: KEPEPQYVLMVPAVLQSDSPSQVCLQFFNLNQTISVRVVLEYDTINTTIFEKNTTTSNGLQCLNFMIPPVTSVSLAFISFTAKGTTFDLKERRSVMIWNMESFVFVQTDKPIYKPGQSVMFRVVALDFNFKPVQEMYPLIAVQDPQNNRIFQWQNVTSEINIVQIEFPLTEEPILGNYKIIVTKKSGERTSHSFLVEEYVLPKFDVTVTAPGSLTVMDSELTVKICAVYTYGQPVEGKVQLSVCRDFDSYGRCKKSPVCQSFTKDLDTDGCLSHILSSKVFELNRIGYKRNLDVKAIVTEKEQVCNLTATQSISITQVMSSLQFENVDHHYRRGIPYFGQIKLVDKDNSPISNKVIQLFVNNKNTHNFTTDINGIAPFSIDTSKIFDPELSLKALYKTSDQCHSEGWIEPSYPDASLSVQRLYSWTSSFVRIEPLWKDMSCGQKRMITVYYILNTEGYEHINIVNFYYVGMAKGKIVLTGEIKVNIQADQNGTFMIPLVVNEKMAPALRLLVYMLHPAKELVADSVRFSIEKCFKNKVQLQFSEKQMLTTSNVSLVIEAAANSFCAVRAVDKSMLLLKSETELSAETIYNLHPIQDLQGYIFNGLNLEDDPQDPCVSSDDIFHKGLYYRPLTSGLGPDVYQFLRDMGMKFFTNSKIRQPTVCTRETVRPPSYFLNAGFTASTHHVKLSAEVAREERGKRHILETIREFFPETWIWDIILINSTGKASVSYTIPDTITEWKASAFCVEELAGFGMSVPATLTAFQPFFVDLTLPYSIIHGEDFLVRANVFNYLNHCIKINVLLLESLDYQAKLISPEDDGCVCAKIRKSYVWNIFPKGTGDVLFSITAETNDDEACEEEALRNIRIDYRDTQIRALLVEPEGIRREETQNFLICMKDDVISQDVAIDLPTNVVEGSPRPSFSVVGDIMGTAIQNVHQLLQMPFGNGEQNMVLFAPNIYVLDYLDKTRQLSEDVKSKTIGYLVSGYQKQLSYKHPDGSYSTFGIRDKEGNTWLTAFVYKSFAEASRFIYIDDNVQAQTLIWLATKQKTDGCFQSTGILVNNAMKGGVENELSLSAYITIALLEAGHSMSHTVIRNAFYCLETASEKNITDIYTQALVAYAFCLAGKAEICESFLRELQKSAKEVDGSKYWEQNQRSAPEKSHLLDHVQSTDVEITSYVLLALLYKPNRSQEDLTKASAIVQWIIRQQNSYGGFASMQDTVVALQALAAYGAATYNSVTQNVIKINSKNTFEKVFTVNNENRLLLQQTPLPQVPGKYSLTVNGTGCVLIQTALRYNIHLPEGAFGFSLSVQTSNASCPRDQPGKFDIVLISSYTGKRSSSNMVIIDVKMLSGFVPVKSSLDQLIDDHTVMQVEYKKNHVLLYLGNILQKRRKEVTFSVEQDFVVTHPKPAPVQIYDYYETEEYAVAEYMSLCRGVVEEMG
C-proteinase [1]
  inhibition of C-proteinase activity (in words): at least partially inhibit
